Results published in patent US11377442B2, “Small molecule agonists and antagonists of NR2F6 activity” (ZANDER THERAPEUTICS, INC., priority 2016, dated 2022).
Values joined by “and” are separate entries in the source; they are usually repeats but may differ in a detail not shown here. Equal entries are not always repeated. Where two headings read alike, the source gives them in different places.

What was measured:
Type in all cases: cell-based
Renilla [1] = assay: Renilla signal, LBD, cmpd/DMSO (NR2F6 LBD transfected cells)
NR2F6 LBD = molecular target: T1, NR2F6 LBD (Homo sapiens, UniProt P10588); assay: NR2F6 LBD transient transfection
T1 construct: expressed in transfected cells
T1 sequence (P10588 165-393 limits assumed): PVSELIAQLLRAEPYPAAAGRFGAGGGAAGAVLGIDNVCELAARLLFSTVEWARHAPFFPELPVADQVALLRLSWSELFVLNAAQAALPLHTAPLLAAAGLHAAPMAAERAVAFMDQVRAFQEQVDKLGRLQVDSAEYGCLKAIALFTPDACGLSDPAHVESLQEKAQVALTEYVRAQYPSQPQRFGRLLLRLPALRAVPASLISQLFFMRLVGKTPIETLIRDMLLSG
Method in brief: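 LBD-transfected cells treated at 40, 10, 2 and 0.5 μM (4 replicates); cytotoxicity measured in parallel, normalized to DMSO (0%) and zero signal (100%). Higher concentrations excluded where signal loss reflected toxicity.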

NR2F6 = molecular target: T2, NR2F6 (Homo sapiens, UniProt P10588); assay: NR2F6 agonist screening, Firefly signal cmpd/DMSO
T2 construct: expressed in transfected cells; also transient transfection
T2 sequence (P10588 1-404): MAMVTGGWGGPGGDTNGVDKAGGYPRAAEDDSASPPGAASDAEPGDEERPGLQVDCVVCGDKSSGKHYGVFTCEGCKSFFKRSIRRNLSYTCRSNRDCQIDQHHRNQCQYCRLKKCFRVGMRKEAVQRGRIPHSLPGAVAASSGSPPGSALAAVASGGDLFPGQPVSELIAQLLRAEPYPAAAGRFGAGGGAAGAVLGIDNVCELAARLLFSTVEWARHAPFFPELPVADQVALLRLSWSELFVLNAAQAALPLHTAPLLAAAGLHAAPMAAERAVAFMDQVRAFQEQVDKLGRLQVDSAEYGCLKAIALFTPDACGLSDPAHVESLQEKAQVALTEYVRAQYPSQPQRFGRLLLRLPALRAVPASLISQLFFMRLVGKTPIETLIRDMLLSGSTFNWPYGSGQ

Renilla [2] = assay: Renilla signal in NR2F6 agonist screening, cmpd/DMSO; details: Renilla
HEK293 pGL4 = assay: Firefly_pGL signal, cmpd/DMSO (pGL4 control cells); details: Homo sapiens
[3] = read-out: Renilla F4, cmpd/DMSO (mean)
[4] = F4, read-out: Renilla, F4, cmpd/DMSO (mean)
[5] = F4, 1% FBS, read-out: Renilla, F4, 1% FBS, cmpd/DMSO (mean)
[6] = F4, 10% FBS, read-out: Renilla, F4, 10% FBS, cmpd/DMSO (mean)

With CC(C)CCN[C@H]1CS(=O)(=O)C[C@@H]1S(=O)(=O)c1ccc(Cl)cc1 [Compound D131] the “Renilla LBD, cmpd/DMSO (mean)” value (Renilla [1]; 0.5 uM) was 1.1, the “Renilla LBD, cmpd/DMSO (mean)” value (Renilla [1]; 2 uM) was 1.1 and the “Renilla LBD, cmpd/DMSO (mean)” value (Renilla [1]; 10 uM) was 0.8. For the same compound, the “Renilla LBD, cmpd/DMSO (mean)” value (Renilla [1]; 40 uM) was 0.2, the “Firefly LBD, cmpd/DMSO (mean)” value (NR2F6 LBD; 0.5 uM) was 0.8 and the “Firefly LBD, cmpd/DMSO (mean)” value (NR2F6 LBD; 0.5 uM, LBD) was 1.3. The “Firefly LBD, cmpd/DMSO (mean)” value (NR2F6 LBD; 2 uM) was 1.7, the “Firefly LBD, cmpd/DMSO (mean)” value (NR2F6 LBD; 2 uM, LBD) was 2.0 and the “Firefly LBD, cmpd/DMSO (mean)” value (NR2F6 LBD; 10 uM) was 4.3. The “Firefly LBD, cmpd/DMSO (mean)” value (NR2F6 LBD; 10 uM, LBD) was 3.6, the “Firefly LBD, cmpd/DMSO (mean)” value (NR2F6 LBD; 40 uM) was 0.5 and the “Firefly LBD, cmpd/DMSO (mean)” value (NR2F6 LBD; 40 uM, LBD) was 0.7. For the same compound, the “Firefly F4, cmpd/DMSO (mean)” value (NR2F6; 0.5 uM) was 1.3, the “Firefly F4, cmpd/DMSO (mean)” value (NR2F6; 0.5 uM, F4) was 1.4 and the “Firefly F4, cmpd/DMSO (mean)” value (NR2F6; 2 uM) was 1.4. The “Firefly F4, cmpd/DMSO (mean)” value (NR2F6; 2 uM, F4) was 1.9, the “Firefly F4, cmpd/DMSO (mean)” value (NR2F6; 10 uM) was 4.3 and the “Firefly F4, cmpd/DMSO (mean)” value (NR2F6; 10 uM, F4) was 4.1. For the same compound, the “Firefly F4, cmpd/DMSO (mean)” value (NR2F6; 40 uM) was 0.9, the “Firefly F4, cmpd/DMSO (mean)” value (NR2F6; 40 uM, F4) was 2.3 and the “F4, Firefly/Renilla for S/B(F4) > 3” value (NR2F6; 1% FBS, 10 uM) was 2.7 and 2.1. The “F4, Firefly/Renilla for S/B(F4) > 3” value (NR2F6; 10% FBS, 10 uM) was 2.2, the “Firefly, F4/pGL4 for S/B(F4) > 3” value (NR2F6; 10% FBS, 10 uM) was 2.2 and the “F4, Firefly/Renilla for S/B(F4) > 3” value (NR2F6; 10% FBS, 40 uM) was 1.4 and 2.5. The “Firefly, F4/pGL4 for S/B(F4) > 3” value (NR2F6; 10% FBS, 40 uM) was 2.3 and 2.1, the “Firefly, F4, 1% FBS, cmpd/DMSO (mean)” value (NR2F6; F4, 1% FBS, 0.5 uM) was 0.8 and 0.9 and the “Firefly, F4, 1% FBS, cmpd/DMSO (mean)” value (NR2F6; F4, 1% FBS, 2 uM) was 1.5 and 0.9. The “Firefly, F4, 1% FBS, cmpd/DMSO (mean)” value (NR2F6; F4, 1% FBS, 10 uM) was 5.4 and 3.6, the “Firefly, F4, 1% FBS, cmpd/DMSO (mean)” value (NR2F6; F4, 1% FBS, 40 uM) was 0.8 and 0.7 and the “Firefly, F4, 10% FBS, cmpd/DMSO (mean)” value (NR2F6; F4, 10% FBS, 2 uM) was 1.1. The “Firefly, F4, 10% FBS, cmpd/DMSO (mean)” value (NR2F6; F4, 10% FBS, 10 uM) was 4.1 and 2.3, the “Firefly, F4, 10% FBS, cmpd/DMSO (mean)” value (NR2F6; F4, 10% FBS, 40 uM) was 4.2 and 6.2 and the fold induction at 0.5 µM (Renilla [2]; [3]) was 1. The fold induction at 2 µM (Renilla [2]; [3]) was 1, the fold induction at 10 µM (Renilla [2]; [3]) was 1.9 and the fold induction at 40 µM (Renilla [2]; [3]) was 0.3. For the same compound, the fold induction at 0.5 µM (Renilla [2]; [4]) was 1.1, the fold induction at 2 µM (Renilla [2]; [4]) was 1.2 and the fold induction at 10 µM (Renilla [2]; [4]) was 1.6. It also gave a fold induction at 40 µM (Renilla [2]; [4]) of 1.8, a fold induction at 0.5 µM (Renilla [2]; [5]) of 1 and a fold induction at 2 µM (Renilla [2]; [5]) of 1.3. For the same compound, the fold induction at 10 µM (Renilla [2]; [5]) was 2, the fold induction at 40 µM (Renilla [2]; [5]) was 2 and the fold induction at 0.5 µM (Renilla [2]; [6]) was 1. It also gave a fold induction at 2 µM (Renilla [2]; [6]) of 1.1, a fold induction at 10 µM (Renilla [2]; [6]) of 1.8 and a fold induction at 40 µM (Renilla [2]; [6]) of 3. It also gave a fold induction at 0.5 µM (HEK293 pGL4; HEK293, 0.5 uM, pGL4, read-out: Firefly pGL4, cmpd/DMSO (mean)) of 1.1, a fold induction at 0.5 µM (HEK293 pGL4; HEK293, 0.5 uM, read-out: Firefly pGL4, cmpd/DMSO (mean)) of 1 and a fold induction at 2 µM (HEK293 pGL4; HEK293, 2 uM, pGL4, read-out: Firefly pGL4, cmpd/DMSO (mean)) of 1.5. The fold induction at 2 µM (HEK293 pGL4; HEK293, 2 uM, read-out: Firefly pGL4, cmpd/DMSO (mean)) was 1.3, the fold induction at 10 µM (HEK293 pGL4; HEK293, 10 uM, pGL4, read-out: Firefly pGL4, cmpd/DMSO (mean)) was 2.7 and the fold induction at 10 µM (HEK293 pGL4; HEK293, 10 uM, read-out: Firefly pGL4, cmpd/DMSO (mean)) was 2.3. The fold induction at 40 µM (HEK293 pGL4; HEK293, 40 uM, pGL4, read-out: Firefly pGL4, cmpd/DMSO (mean)) was 0.5, the fold induction at 40 µM (HEK293 pGL4; HEK293, 40 uM, read-out: Firefly pGL4, cmpd/DMSO (mean)) was 1 and the fold induction at 0.5 µM (HEK293 pGL4; HEK293, pGL4, 1% FBS, 0.5 uM, read-out: Firefly, pGL4, 1% FBS, cmpd/DMSO (mean)) was 1. It also gave a fold induction at 2 µM (HEK293 pGL4; HEK293, pGL4, 1% FBS, 2 uM, read-out: Firefly, pGL4, 1% FBS, cmpd/DMSO (mean)) of 1.1, a fold induction at 10 µM (HEK293 pGL4; HEK293, pGL4, 1% FBS, 10 uM, read-out: Firefly, pGL4, 1% FBS, cmpd/DMSO (mean)) of 1.7 and a fold induction at 40 µM (HEK293 pGL4; HEK293, pGL4, 1% FBS, 40 uM, read-out: Firefly, pGL4, 1% FBS, cmpd/DMSO (mean)) of 0.9. The fold induction at 0.5 µM (HEK293 pGL4; HEK293, pGL4, 10% FBS, 0.5 uM, read-out: Firefly, pGL4, 10% FBS, cmpd/DMSO (mean)) was 1, the fold induction at 2 µM (HEK293 pGL4; HEK293, pGL4, 10% FBS, 2 uM, read-out: Firefly, pGL4, 10% FBS, cmpd/DMSO (mean)) was 1.2 and the fold induction at 10 µM (HEK293 pGL4; HEK293, pGL4, 10% FBS, 10 uM, read-out: Firefly, pGL4, 10% FBS, cmpd/DMSO (mean)) was 1.9. The fold induction at 40 µM (HEK293 pGL4; HEK293, pGL4, 10% FBS, 40 uM, read-out: Firefly, pGL4, 10% FBS, cmpd/DMSO (mean)) was 1.8.
